# Test results taken from ChEMBL document CHEMBL1681651, “A broad spectrum anticancer nucleoside with selective toxicity against human colon cells in vitro” (2011).
# How the values were obtained:
# Type in all cases: functional
# HT-29 [1] = experiment: Growth inhibition of human HT-29 cells assessed as cell growth at 10 uM after 48 hrs by SRB assay; settings: HT-29, 48 h, read-out: Activity
# NCI-H460 [2] = experiment: Growth inhibition of human NCI-H460 cells assessed as cell growth at 0.1 uM after 48 hrs by SRB assay; settings: NCI-H460, 48 h, read-out: Activity
# MCF7 = experiment: Growth inhibition of human MCF7 cells assessed as cell growth at 100 uM after 48 hrs by SRB assay; settings: MCF7, 48 h, read-out: Activity
# Malme-3M [3] = experiment: Growth inhibition of human MALME-3M cells assessed as cell growth at 10 uM after 48 hrs by SRB assay; settings: read-out: Activity
# KM12 [4] = experiment: Growth inhibition of human KM12 cells assessed as cell growth at 1 mM after 48 hrs by SRB assay; settings: KM12, 48 h, read-out: Activity
# HCT-15 = experiment: Growth inhibition of human HCT15 cells assessed as cell growth at 100 uM after 48 hrs by SRB assay; settings: HCT-15, 48 h, read-out: Activity
# KM12 [5] = experiment: Growth inhibition of human KM12 cells assessed as cell growth at 10 uM after 48 hrs by SRB assay; settings: KM12, 48 h, read-out: Activity
# A549 = experiment: Growth inhibition of human A549 cells assessed as cell growth at 1 uM after 48 hrs by SRB assay; settings: A549, 48 h, read-out: Activity
# CAKI-1 = experiment: Growth inhibition of human Caki1 cells after 48 hrs by […] growth inhibition assay; settings: CAKI-1, 48 h
# UO-31 [6] = experiment: Growth inhibition of human UO31 cells assessed as cell growth at 1 uM after 48 hrs by SRB assay; settings: UO-31, 48 h, read-out: Activity
# SN12C = experiment: Growth inhibition of human SN12C cells assessed as cell growth at 1 uM after 48 hrs by SRB assay; settings: read-out: Activity
# ACHN = experiment: Growth inhibition of human ACHN cells assessed as cell growth at 10 uM after 48 hrs by SRB assay; settings: read-out: Activity
# M14 = experiment: Growth inhibition of human M14 cells after 48 hrs by […] growth inhibition assay; settings: M14, 48 h
# OVCAR-4 [7] = experiment: Growth inhibition of human OVCAR4 cells after 48 hrs by […] growth inhibition assay; settings: OVCAR-4, 48 h
# TK-10 = experiment: Growth inhibition of human TK10 cells assessed as cell growth at 1 mM after 48 hrs by SRB assay; settings: TK-10, 48 h, read-out: Activity
# OVCAR-8 [8] = experiment: Growth inhibition of human OVCAR8 cells assessed as cell growth at 0.1 uM after 48 hrs by SRB assay; settings: OVCAR-8, 48 h, read-out: Activity
# U-251 [9] = experiment: Growth inhibition of human U251 cells assessed as cell growth at 1 uM after 48 hrs by SRB assay; settings: U-251, 48 h, read-out: Activity
# HOP-62 = experiment: Growth inhibition of human HOP62 cells after 48 hrs by […] growth inhibition assay; settings: HOP-62, 48 h
# OVCAR-5 = experiment: Growth inhibition of human OVCAR5 cells assessed as cell growth at 0.1 uM after 48 hrs by SRB assay; settings: OVCAR-5, 48 h, read-out: Activity
# CCRF-CEM [10] = experiment: Growth inhibition of human CCRF-CEM cells assessed as cell growth at 1 uM after 48 hrs by SRB assay; settings: read-out: Activity
# UO-31 [11] = experiment: Growth inhibition of human UO31 cells assessed as cell growth at 10 uM after 48 hrs by SRB assay; settings: UO-31, 48 h, read-out: Activity
# SK-MEL-5 = experiment: Growth inhibition of human SK-MEL-5 cells assessed as cell growth at 100 uM after 48 hrs by SRB assay; settings: SK-MEL-5, 48 h, read-out: Activity
# NCI-H460 [12] = experiment: Growth inhibition of human NCI-H460 cells assessed as cell growth at 1 uM after 48 hrs by SRB assay; settings: NCI-H460, 48 h, read-out: Activity
# LOX IMVI = experiment: Growth inhibition of human LOXIMVI cells assessed as cell growth at 100 uM after 48 hrs by SRB assay; settings: read-out: Activity
# CCRF-CEM [13] = experiment: Growth inhibition of human CCRF-CEM cells after 48 hrs by […] growth inhibition assay
# U-251 [14] = experiment: Growth inhibition of human U251 cells assessed as cell growth at 0.1 uM after 48 hrs by SRB assay; settings: U-251, 48 h, read-out: Activity
# HT-29 [15] = experiment: Growth inhibition of human HT-29 cells after 48 hrs by […] growth inhibition assay; settings: HT-29, 48 h
# BT-549 = experiment: Growth inhibition of human BT549 cells assessed as cell growth at 0.1 uM after 48 hrs by SRB assay; settings: BT-549, 48 h, read-out: Activity
# SNB-75 = experiment: Growth inhibition of human SNB75 cells assessed as cell growth at 0.1 uM after 48 hrs by SRB assay; settings: SNB-75, 48 h, read-out: Activity
# OVCAR-4 [16] = experiment: Growth inhibition of human OVCAR4 cells assessed as cell growth at 10 uM after 48 hrs by SRB assay; settings: OVCAR-4, 48 h, read-out: Activity
# SK-MEL-2 = experiment: Growth inhibition of human SK-MEL-2 cells assessed as cell growth at 10 uM after 48 hrs by SRB assay; settings: SK-MEL-2, 48 h, read-out: Activity
# Malme-3M [17] = experiment: Growth inhibition of human MALME-3M cells assessed as cell growth at 0.1 uM after 48 hrs by SRB assay; settings: read-out: Activity
# T47D = experiment: Growth inhibition of human T47D cells assessed as cell growth at 1 mM after 48 hrs by SRB assay; settings: read-out: Activity
# EKVX = experiment: Growth inhibition of human EKVX cells assessed as cell growth at 0.1 uM after 48 hrs by SRB assay; settings: read-out: Activity
# OVCAR-8 [18] = experiment: Growth inhibition of human OVCAR8 cells assessed as cell growth at 10 uM after 48 hrs by SRB assay; settings: OVCAR-8, 48 h, read-out: Activity
# [19] = read-out: LC50 (the source's name)
# [20] = read-out: pLC50 (the source's name) (converted)
smiles,measurement,setting,value
CNC(=O)NC[C@H]1O[C@@H](n2cnc3c(NC(=O)Nc4ccccc4)ncnc32)[C@H](O[Si](C)(C)C(C)(C)C)[C@@H]1O[Si](C)(C)C(C)(C)C,growth at 10 µM,HT-29 [1],107%
same,growth at 0.1 µM,NCI-H460 [2],104%
same,growth at 100 µM,MCF7,6%
same,growth at 10 µM,Malme-3M [3],96%
same,growth at 1000 µM,KM12 [4],-74%
same,growth at 100 µM,HCT-15,11%
same,growth at 10 µM,KM12 [5],107%
same,growth at 1 µM,A549,98%
same,GI50,CAKI-1; read-out: GI50,2.7 µM
same,CC50,CAKI-1; [19],> 100 µM
same,TGI,CAKI-1; read-out: TGI,7.93 µM
same,GI50,CAKI-1; read-out: pGI50 (converted),2.69 µM
same,CC50,CAKI-1; [20],> 100 µM
same,TGI,CAKI-1; read-out: pTGI (converted),7.94 µM
same,growth at 1 µM,UO-31 [6],97%
same,growth at 1 µM,SN12C,100%
same,growth at 10 µM,ACHN,105%
same,GI50,M14; read-out: GI50,4.33 µM
same,CC50,M14; [19],93.8 µM
same,TGI,M14; read-out: TGI,18.5 µM
same,GI50,M14; read-out: pGI50 (converted),4.37 µM
same,CC50,M14; [20],93.3 µM
same,TGI,M14; read-out: pTGI (converted),18.6 µM
same,GI50,OVCAR-4 [7]; read-out: GI50,3.44 µM
same,CC50,OVCAR-4 [7]; [19],> 100 µM
same,TGI,OVCAR-4 [7]; read-out: TGI,43.9 µM
same,GI50,OVCAR-4 [7]; read-out: pGI50 (converted),3.47 µM
same,CC50,OVCAR-4 [7]; [20],> 100 µM
same,TGI,OVCAR-4 [7]; read-out: pTGI,43.7 µM
same,growth at 1000 µM,TK-10,-2%
same,growth at 0.1 µM,OVCAR-8 [8],108%
same,growth at 1 µM,U-251 [9],102%
same,GI50,HOP-62; read-out: GI50,4.98 µM
same,CC50,HOP-62; [19],48 µM
same,TGI,HOP-62; read-out: TGI,17.1 µM
same,GI50,HOP-62; read-out: pGI50 (converted),5.01 µM
same,CC50,HOP-62; [20],47.9 µM
same,TGI,HOP-62; read-out: pTGI (converted),17 µM
same,growth at 0.1 µM,OVCAR-5,96%
same,growth at 1 µM,CCRF-CEM [10],109%
same,growth at 10 µM,UO-31 [11],84%
same,growth at 100 µM,SK-MEL-5,-42%
same,growth at 1 µM,NCI-H460 [12],93%
same,growth at 100 µM,LOX IMVI,-89%
same,GI50,CCRF-CEM [13]; read-out: GI50,3.59 µM
same,"LC50 (lethal concentration, 50% net cell kill)",CCRF-CEM [13]; read-out: LC50,> 100 µM
same,TGI,CCRF-CEM [13]; read-out: TGI,> 100 µM
same,GI50,CCRF-CEM [13]; read-out: pGI50 (converted),3.63 µM
same,"LC50 (lethal concentration, 50% net cell kill)",CCRF-CEM [13]; read-out: pLC50 (converted),> 100 µM
same,TGI,CCRF-CEM [13]; read-out: pTGI (converted),> 100 µM
same,growth at 0.1 µM,U-251 [14],102%
same,GI50,HT-29 [15]; read-out: GI50,2.02 µM
same,CC50,HT-29 [15]; [19],6.91 µM
same,TGI,HT-29 [15]; read-out: TGI,3.73 µM
same,GI50,HT-29 [15]; read-out: pGI50 (converted),2 µM
same,CC50,HT-29 [15]; [20],6.92 µM
same,TGI,HT-29 [15]; read-out: pTGI (converted),3.72 µM
same,growth at 0.1 µM,BT-549,113%
same,growth at 0.1 µM,SNB-75,94%
same,growth at 10 µM,OVCAR-4 [16],100%
same,growth at 10 µM,SK-MEL-2,105%
same,growth at 0.1 µM,Malme-3M [17],105%
same,growth at 1000 µM,T47D,-32%
same,growth at 0.1 µM,EKVX,105%
same,growth at 10 µM,OVCAR-8 [18],106%
